# According to patent US4690944A, “Homocysteine thiolactone derivatives, process for the preparation thereof and pharmaceutical compositions therefrom” (Chiesi Farmaceutici S.p.A., priority 1985, dated 1987):
# Columns and labels:
# respiratory tract = test: Mucosecretodynamic activity, "in vivo" fluorescein test; settings: Mus musculus, po; male mice, p.o., 90 minutes before i.v. fluorescein; excretion increase versus controls
# Experimental: The compounds, dissolved or suspended in 20 ml/kg of a 0.2% Tween® 80 aqueous suspension, were administered orally 90 minutes before the intravenous injection of 1% (5 ml/kg) fluorescein. Animals treated p.o. with the only vehicle were used as a control group. After 30 minutes from the fluorescein injection the animals were killed and subjected to incannulation of the trachea. Then the respiratory tract was washed and the spectrophotometric dosage of the fluorescein was carried out against phosphate buffer on the so collected eluate, suitably diluted with phosphate buffer and centrifugated.
# The amount of fluorescein was determined by means of a calibration curve prepared in the same experimental conditions and the excretion expressed as ng/hour/10 g body weight. For each experimental session the percent increases of excretion versus controls were calculated.
# [1] = Toxicity after single administration (acute toxicity, oral); settings: mouse, in vivo, mice, p.o., death-rate after 7 days, read-out: Acute toxicity LD50 approx.
# Experimental: IVA:NMRI (SPF) mice, fasted for 18 hours before treatment with water ad libitum, have been used. The compounds, dissolved or suspended in a 0.2% Tween® 80 aqueous solution, have been administered orally, at constant concentration (10%). According to the death-rate observed after 7 days from treatment, the approximate LD50 values, reported in Table 1, have been interpolated on Probits chart.
# porcine gastric mucine = test: "In vitro" mucolytic activity (viscoelasticity of porcine gastric mucine); format: biochemical; settings: 0.2 ml of 10% DMSO solution of compound in 1.8 ml of 6% mucine, 25° C., 30 minutes, 0.075 Hz
# Experimental: Control samples were similarly added with the vehicle only. After incubation at 25° C. for 30 minutes, the analysis of the rheologic characteristics was carried out by means of Contraves Low-Shear 30 sinus viscosimeter endowed with oscillating device for the study of the viscoelasticity. The dynamic measurements of the viscoelasticity were carried out at a single frequency (0.075 Hz), using an appropriate concentrical cylinder measurement system, particularly suited for bronchial mucus (Contraves MS-LS 1-1).
# The rheogramm was recorded on X/Y Rikadenki 11T recorder and the […] determination was carried out by means of vectorial calculation.
# The percent decreases versus control samples, reported in Table 1, were determined from the means of the values of said parameters (at least 7 replications per sample).
Structure (SMILES),ED50 (respiratory tract) [mg/kg],LD50 at 168 h [1] [mg/kg],"""in vitro"" % decrease elasticity (G') (porcine gastric mucine) [%]","""in vitro"" % decrease viscosity (.eta.) (porcine gastric mucine) [%]"
"O=C1SCCC1NC(=O)C1C2C=CC(C2)C1C(=O)O (centres unmarked) [IV, 3-[[N-(Tetrahydro-2-oxo-3-thienyl)amino]-carbonyl]bicyclo[2,2,1]-ept-5-ene-2-carboxylic acid]",25,> 4000,32,43
"O=C(O)c1ccccc1C(=O)NC1CCSC1=O (centres unmarked) [II, 2-[[N-(tetrahydro-2-oxo-3-thienyl)amino]carbonyl]benzoic acid]",340,> 4000,23,45
"NC(CSCC(=O)O)C(=O)O (centres unmarked) [S-carboxymethyl-cysteine, S--carboxymethyl-cysteine, reference compound]",1900,> 4000,–,–
"CC(=O)N[C@@H](CS)C(=O)O [N-acetyl-L-cysteine, N--acetyl-L-cysteine, reference compound]",1300,4400,39,53
